# Test results taken from article PMC3591530 (Molecular Imaging and Biology, 2012).
# Where a SMILES comes first, the peptide text is derived from it. [ ]: non-standard residue; d: D form. Tyr(3-I) = N[C@@H](Cc1ccc(O)c(I)c1)C(=O)O
# Legend:
# [1] = tested on: BxPC3 cells; type: binding, human; details: 24 h
# Method: (§1) Three hundred thousand BxPC3, MCF7, PDGFRβ-tr-HEK, CaIX-tr-HEK, or HEK293wt cells were cultivated in six-well plates at 37°C for 24 h. Cells were blocked with RPMI 1640 containing 1% milk powder and the medium was replaced with 1 ml fresh medium (without FCS) containing 0.5–1.5 × 10^6 cpm ^125I-labeled peptide. After incubation at 37°C for various time periods (10 min to 6 h), the medium was removed and the cells were washed with PBS. Subsequently, cell lysis was performed with 0.5 ml NaOH 0.3 M and the bound radioactivity was measured with a γ-counter and calculated as percentage applied dose per 10^6 cells. Specific binding was determined through co-incubation of the radioligand with the unlabeled PDGFR-P1 peptide at various concentrations (10^−4 to 10^−10 M). A dodecapeptide identified with phage display by panning against the extracellular domain of human carbonic anhydrase IX (CaIX-P1) as well as a derivative of a dodecapeptide identified with phage display on prostate carcinoma cells (DUP-1–9) were used as negative control competitors.
# [2] = target: T1, extracellular domain of human PDGFRβ (Homo sapiens, UniProt P09619); type: binding; details: pH 7.4
# T1 construct: The extracellular domain of PDGFRβ was recombinantly synthesized using the Flp-In system; Fc (Fcγ from pSEC-EGP-2-Fcγ vector) (C); made in house; host or cells: Flp-In-293 human embryonic kidney cells
# Method: Binding of ^125I-labeled PDGFR-P1 was investigated on immobilized extracellular domain of human PDGFRβ, EGFR, and FGFR. The target proteins were incubated at a concentration of 25 nM in 96-well Maxisorp^TM plates (Nunc GmbH & Co. KG, Germany) for 24 h and the plates were washed thrice with 100 μl PBS pH 7.4. ^125I-labeled PDGFR-P1 was incubated with the target in 100 μl PBS pH 7.4 for 60 min. The unbound activity was removed by washing with 300 μl ice-cold PBS pH 7.4. Bound radioligand was determined through degradation with 100 μl NaOH 0.3 M and radioactivity measurement. Radioligand binding was calculated as percentage applied dose.
# [3] = human serum; details: 37°C, up to 20 h
# [4] = tested on: PDGFR-tr-HEK cells; test: In vitro binding kinetics on PDGFRβ-transfected HEK293 cells; set-up: species or system human; details: kinetic studies, vs HEK293wt and CaIX-tr-HEK cells, 37°C, serum-free medium, p < 0.05
# Method: as §1
# [5] = Stability in human serum; type: in vitro ADME; details: 37°C, HPLC analysis
# Method: The stability of PDGFR-P1 was investigated in human serum. ^125I-labeled peptide was incubated at 37°C in human serum. At time points varying from 5 min to 20 h, aliquots were taken, mixed with equal volume acetonitrile, to precipitate serum proteins and centrifuged for 5 min at 13,000 rpm. Serum degradation products were determined by HPLC analysis of the supernatant.
# [6] = in vivo; set-up: species or system Balb/c nu/nu mice; details: female, Balb/c nu/nu, mouse, iv, 1 MBq, total radioactivity; for tissue to tissue ratio at 0.25 h: Tumor-to-organ ratio
# Method: (§2) Organ distribution studies were carried out in 9-week-old female Balb/c nu/nu mice (Charles River WIGA), carrying subcutaneously transplanted human pancreatic cancer BxPC3 tumors. Tumor implantation was performed through injection of a cell suspension (4 × 10^6 cells in OPTI-MEM) (Gibco, Invitrogen Life Technologies) into the mouse trunk. After the tumors were grown to a size of approximately 1.0 cm^3, 1 MBq of ^131I-labeled PDGFR-P1 was injected into the tail vein, and at 15 min p.i. the animals were euthanized. Tumor, blood, and healthy tissues were removed, weighed, and measured with a γ-counter (LB […]; Berthold Technologies). Organ uptake calculation was performed as percentage injected dose per gram tissue (% ID/g). To avoid bias due to blood background radioactivity, uptake in blood-free organs was determined with perfusion experiments. Within these experiments, blood was removed through a catheter in the ascending aorta of the anesthesized animal and perfusion with approximately 25 ml 0.9% NaCl was performed via a cut in the animal liver. After perfusion, samples of tumor and organs were removed and measured as described. All animal experiments were carried out in conformity with the German and European laws for animal protection.
# [7] = tested on: BxPC3 tumors; test: in vivo; set-up: species or system Balb/c nu/nu mice; details: female, Balb/c nu/nu, mouse, iv, 1 MBq, 0.25 h
# Method: as §2
# T1 sequence (P09619 33-532 limits assumed): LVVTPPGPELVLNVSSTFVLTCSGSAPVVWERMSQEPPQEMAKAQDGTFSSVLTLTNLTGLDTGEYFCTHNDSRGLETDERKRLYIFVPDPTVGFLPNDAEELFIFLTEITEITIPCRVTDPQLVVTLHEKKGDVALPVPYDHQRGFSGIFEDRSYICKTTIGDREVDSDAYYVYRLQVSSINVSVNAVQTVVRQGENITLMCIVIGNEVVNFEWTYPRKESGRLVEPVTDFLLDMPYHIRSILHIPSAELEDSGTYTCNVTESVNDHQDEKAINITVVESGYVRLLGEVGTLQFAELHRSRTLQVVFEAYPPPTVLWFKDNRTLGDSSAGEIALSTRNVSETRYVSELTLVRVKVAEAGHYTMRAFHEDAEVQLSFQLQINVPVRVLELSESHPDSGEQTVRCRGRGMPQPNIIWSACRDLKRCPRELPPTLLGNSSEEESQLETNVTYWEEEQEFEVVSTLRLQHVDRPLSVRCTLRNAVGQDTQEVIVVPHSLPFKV
compound,measurement,setting,value
CC[C@H](C)[C@H](N)C(=O)N1CCC[C@H]1C(=O)N[C@@H](CC(C)C)C(=O)N1CCC[C@H]1C(=O)N1CCC[C@H]1C(=O)N1CCC[C@H]1C(=O)N[C@@H](CO)C(=O)N[C@@H](CCCNC(=N)N)C(=O)N1CCC[C@H]1C(=O)N[C@@H](Cc1ccccc1)C(=O)N[C@@H](Cc1ccccc1)C(=O)N[C@@H](CCCCN)C(=O)N[C@@H](Cc1ccc(O)cc1)C(N)=O [PDGFR-P1] (H-IPLPPPSRPFFKY-NH2),IC50,[1],1400 nM
same,Binding of the radioligand (percentage applied dose),[2],about 18%
IPLPPPSRPFFKY-NH2,cleaved bond,[3],K-Y
same,fragment found,[3],Y-OH
CC[C@H](C)[C@H](N)C(=O)N1CCC[C@H]1C(=O)N[C@@H](CC(C)C)C(=O)N1CCC[C@H]1C(=O)N1CCC[C@H]1C(=O)N1CCC[C@H]1C(=O)N[C@@H](CO)C(=O)N[C@@H](CCCNC(=N)N)C(=O)N1CCC[C@H]1C(=O)N[C@@H](Cc1ccccc1)C(=O)N[C@@H](Cc1ccccc1)C(=O)N[C@@H](CCCCN)C(=O)N[C@@H](Cc1ccc(O)c(I)c1)C(N)=O [^125I-labeled PDGFR-P1] (H-IPLPPPSRPFFK[Tyr(3-I)]-NH2; N-terminus assumed),Binding on PDGFR-tr-HEK cells compared to negative controls,[4],significantly increased binding
same,Degradation product analysis,[5],cleavage of the C-terminal tyrosine over time
same,half-life,"[5]; aliquots 5 min to 20 h, acetonitrile precipitation",4 min
CC[C@H](C)[C@H](N)C(=O)N1CCC[C@H]1C(=O)N[C@@H](CC(C)C)C(=O)N1CCC[C@H]1C(=O)N1CCC[C@H]1C(=O)N1CCC[C@H]1C(=O)N[C@@H](CO)C(=O)N[C@@H](CCCNC(=N)N)C(=O)N1CCC[C@H]1C(=O)N[C@@H](Cc1ccccc1)C(=O)N[C@@H](Cc1ccccc1)C(=O)N[C@@H](CCCCN)C(=O)N[C@@H](Cc1ccc(O)c(I)c1)C(N)=O [^131I-labeled PDGFR-P1] (H-IPLPPPSRPFFK[Tyr(3-I)]-NH2; N-terminus assumed),tissue uptake at 0.25 h,[6]; Activity concentration in blood,5.4 %ID/g
same,tissue uptake at 0.25 h,[6]; Activity concentration in kidney,10.6 %ID/g
same,tissue uptake at 0.25 h,[6]; Tumor accumulation,3.2 %ID/g
same,tissue to tissue ratio at 0.25 h,[6]; Brain,8.7
same,tissue to tissue ratio at 0.25 h,[6]; Intestinum,1.43
same,tissue to tissue ratio at 0.25 h,[6]; Kidney,0.299
same,tissue to tissue ratio at 0.25 h,[6]; Muscle,2.15
same,tissue to tissue ratio at 0.25 h,[6]; Spleen,1.42
same,"Tumor-to-organ ratio, Brain",[7],9.083
same,"Tumor-to-organ ratio, Intestinum",[7],1.321
same,"Tumor-to-organ ratio, Kidney",[7],0.379
same,"Tumor-to-organ ratio, Muscle",[7],2.530
same,"Tumor-to-organ ratio, Spleen",[7],1.601
